# Measurements taken from ChEMBL document CHEMBL1145543, “X-ray snapshot of the mechanism of inactivation of human neutrophil elastase by 1,2,5-thiadiazolidin-3-one 1,1-dioxide derivatives” (J Med Chem, 2008).
# Legend:
# [1] = organism: Bos taurus; assay: Inhibition of bovine trypsin; details: TDE = time-dependent effect
# [2] = molecular target: T1, Neutrophil elastase (Homo sapiens, UniProt P08246); assay: Inhibition human neutrophil elastase
# T1 sequence (P08246 whole entry): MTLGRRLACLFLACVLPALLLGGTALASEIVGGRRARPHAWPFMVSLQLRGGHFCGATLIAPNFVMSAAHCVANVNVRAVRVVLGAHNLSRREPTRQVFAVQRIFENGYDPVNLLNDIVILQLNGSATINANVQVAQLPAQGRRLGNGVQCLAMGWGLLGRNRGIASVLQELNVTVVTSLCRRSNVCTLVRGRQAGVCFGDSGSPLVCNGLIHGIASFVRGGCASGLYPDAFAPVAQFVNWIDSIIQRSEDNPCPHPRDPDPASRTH
# [3] = molecular target: T2, Neutrophil elastase (Homo sapiens) (UniProt P08246); assay: Ratio of Kinact to KI for human neutrophil elastase
# T2 sequence (whole entry): T1 sequence (P08246 whole entry)
compound,measurement,setting,value
CCCC1C(=O)N(COC(=O)c2c(Cl)cccc2Cl)S(=O)(=O)N1C (stereo not drawn),Activity,[1],tde
same,Ki,[2],5.47 nM
same,Ratio,[3],8.9 10^6/M/s
